Experimental data taken from ChEMBL document CHEMBL1201862, “PubChem BioAssay data set” (2004).
Calls of active or inactive are those of the source.

Experiments:
[1] = target: Beta-galactosidase (Escherichia coli, UniProt Q8VNN2); test: Dose response counterscreen for EBI2 assay utilizing the enzyme, b-galactosidase.; assay type: functional
[2] = target: Nonstructural protein 1 (Influenza A virus, UniProt Q194T2); assay type: functional, Influenza A virus (A/California/07/2009(H1N1))
[3] = target: T1, Fatty acid synthase (Homo sapiens, UniProt P49327); test: FAS thioesterase domain inhibitors, dose response, biochemical, endpoint fluorescence intensity, uHTS hits (AID 624327); assay type: functional;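 also: fluorescence from hydrolysis of an O-methyl fluorescein acyl ester substrate by the enzyme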
T1 sequence (P49327 whole entry, the tested form may be a part): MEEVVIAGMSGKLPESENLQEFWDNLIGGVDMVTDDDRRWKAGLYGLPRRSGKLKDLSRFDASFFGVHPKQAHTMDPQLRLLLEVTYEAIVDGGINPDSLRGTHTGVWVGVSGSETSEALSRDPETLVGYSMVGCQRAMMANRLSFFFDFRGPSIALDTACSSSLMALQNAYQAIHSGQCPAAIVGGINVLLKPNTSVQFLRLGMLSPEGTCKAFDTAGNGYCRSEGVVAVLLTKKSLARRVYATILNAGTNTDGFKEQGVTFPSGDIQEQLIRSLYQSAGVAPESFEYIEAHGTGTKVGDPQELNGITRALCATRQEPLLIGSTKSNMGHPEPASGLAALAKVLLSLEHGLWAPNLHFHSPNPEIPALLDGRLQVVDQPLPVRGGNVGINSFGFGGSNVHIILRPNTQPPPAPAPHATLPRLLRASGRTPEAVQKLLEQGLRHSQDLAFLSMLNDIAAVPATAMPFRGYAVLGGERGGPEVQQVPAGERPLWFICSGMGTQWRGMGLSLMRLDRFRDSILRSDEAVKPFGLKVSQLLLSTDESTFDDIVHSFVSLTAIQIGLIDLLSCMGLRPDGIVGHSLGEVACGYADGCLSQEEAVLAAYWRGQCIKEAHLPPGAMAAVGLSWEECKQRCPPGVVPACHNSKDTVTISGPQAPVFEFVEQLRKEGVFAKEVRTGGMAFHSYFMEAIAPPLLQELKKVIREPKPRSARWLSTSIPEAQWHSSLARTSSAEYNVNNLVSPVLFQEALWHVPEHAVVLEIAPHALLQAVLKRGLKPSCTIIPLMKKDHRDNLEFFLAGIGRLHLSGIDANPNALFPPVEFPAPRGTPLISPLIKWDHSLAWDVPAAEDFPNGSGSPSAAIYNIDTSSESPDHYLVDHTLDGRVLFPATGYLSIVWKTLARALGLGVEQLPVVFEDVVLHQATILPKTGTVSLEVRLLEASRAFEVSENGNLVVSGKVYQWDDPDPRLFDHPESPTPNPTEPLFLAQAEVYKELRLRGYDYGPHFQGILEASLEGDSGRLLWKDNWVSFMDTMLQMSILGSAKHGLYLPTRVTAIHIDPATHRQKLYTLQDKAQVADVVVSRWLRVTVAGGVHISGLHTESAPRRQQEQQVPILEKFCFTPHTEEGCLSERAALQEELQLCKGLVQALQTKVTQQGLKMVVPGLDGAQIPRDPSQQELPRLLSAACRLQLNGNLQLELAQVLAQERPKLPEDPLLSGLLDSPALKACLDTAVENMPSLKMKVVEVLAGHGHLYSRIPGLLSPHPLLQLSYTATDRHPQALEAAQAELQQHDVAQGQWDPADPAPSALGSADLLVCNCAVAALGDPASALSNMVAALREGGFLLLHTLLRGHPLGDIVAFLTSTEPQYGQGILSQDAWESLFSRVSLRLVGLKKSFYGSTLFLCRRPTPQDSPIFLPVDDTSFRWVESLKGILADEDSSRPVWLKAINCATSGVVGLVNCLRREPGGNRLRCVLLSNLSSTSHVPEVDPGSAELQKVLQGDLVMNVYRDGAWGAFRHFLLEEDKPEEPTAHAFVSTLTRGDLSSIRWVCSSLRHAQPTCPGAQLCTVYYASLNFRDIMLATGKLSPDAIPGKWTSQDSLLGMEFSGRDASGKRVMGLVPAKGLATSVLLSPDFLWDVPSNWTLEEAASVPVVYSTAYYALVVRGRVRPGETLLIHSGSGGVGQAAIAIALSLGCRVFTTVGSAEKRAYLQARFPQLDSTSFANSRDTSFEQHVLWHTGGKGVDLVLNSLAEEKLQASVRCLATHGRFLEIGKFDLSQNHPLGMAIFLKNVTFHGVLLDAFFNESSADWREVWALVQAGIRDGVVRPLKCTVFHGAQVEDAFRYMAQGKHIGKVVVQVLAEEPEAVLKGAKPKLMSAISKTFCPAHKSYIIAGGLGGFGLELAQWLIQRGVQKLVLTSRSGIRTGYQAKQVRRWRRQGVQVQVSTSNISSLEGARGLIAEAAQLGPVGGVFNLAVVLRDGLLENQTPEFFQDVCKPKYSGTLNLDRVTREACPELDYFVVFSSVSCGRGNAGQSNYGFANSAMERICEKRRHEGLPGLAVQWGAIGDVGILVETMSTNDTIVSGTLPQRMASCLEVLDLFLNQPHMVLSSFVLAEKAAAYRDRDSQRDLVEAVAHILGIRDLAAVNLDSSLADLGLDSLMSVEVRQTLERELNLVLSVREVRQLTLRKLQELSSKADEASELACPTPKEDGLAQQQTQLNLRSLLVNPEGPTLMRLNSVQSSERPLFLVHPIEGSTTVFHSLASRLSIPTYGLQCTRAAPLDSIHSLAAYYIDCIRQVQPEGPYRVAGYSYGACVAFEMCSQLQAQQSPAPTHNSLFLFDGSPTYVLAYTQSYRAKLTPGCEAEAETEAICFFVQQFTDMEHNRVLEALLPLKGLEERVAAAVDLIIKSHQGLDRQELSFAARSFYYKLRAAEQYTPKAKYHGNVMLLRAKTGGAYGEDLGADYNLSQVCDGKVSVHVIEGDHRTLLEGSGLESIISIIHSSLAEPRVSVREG

[4] = target: T1, Fatty acid synthase; test: FAS thioesterase domain inhibitors, dose response, biochemical, kinetic fluorescence intensity (AID 624326); assay type: functional;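 also: rate of fluorescence rise from hydrolysis of a fluorogenic O-methyl fluorescein ester substrate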
[5] = target: Matrix metalloproteinase-14 (Homo sapiens, UniProt P50281); test: Dose Response confirmation of uHTS hits for a small molecule inhibitors of MT1-MMP activation in a fluorescence assay set 1.; assay type: functional
[6] = HEK293T cytotoxicity, dose response, cytotoxicity control for miR-122 modulator project, cell-based, inhibitor set, cherry-pick, set 2 (AID 720697); assay type: functional
[7] = target: Photoreceptor-specific nuclear receptor (Homo sapiens, UniProt Q9Y5X4); test: NR2E3 inverse agonists, dose response, biochemical, TR-FRET (AID 463256); assay type: functional
Sequence of Photoreceptor-specific nuclear receptor (Q9Y5X4 whole entry): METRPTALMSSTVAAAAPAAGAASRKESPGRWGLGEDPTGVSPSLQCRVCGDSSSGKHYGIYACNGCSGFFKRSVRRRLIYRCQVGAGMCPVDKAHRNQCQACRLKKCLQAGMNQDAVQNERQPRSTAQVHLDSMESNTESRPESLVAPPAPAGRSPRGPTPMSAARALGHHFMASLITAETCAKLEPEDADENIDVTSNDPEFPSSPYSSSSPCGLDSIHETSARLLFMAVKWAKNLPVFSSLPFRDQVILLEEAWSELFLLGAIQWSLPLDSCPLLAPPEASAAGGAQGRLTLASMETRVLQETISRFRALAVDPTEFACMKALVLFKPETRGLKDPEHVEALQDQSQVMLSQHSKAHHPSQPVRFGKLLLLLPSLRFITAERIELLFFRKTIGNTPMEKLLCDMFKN

[8] = target: Peroxisome proliferator-activated receptor gamma/Nuclear receptor corepressor 2 (Homo sapiens, UniProt P37231+Q9Y618); test: Counterscreen for NR2E3 inverse agonists: TR-FRET-based biochemical high throughput dose response assay to identify inverse agonists of the interaction between peroxisome proliferator-activated receptor gamma (PPARg) and nuclear receptor co-repressor 2 (NCOR2).; assay type: functional
[9] = human group III sPLA2 inhibitors, dose response, biochemical, QFRET, IC50 (AID 743457);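 also: green fluorescence rise as the enzyme cleaves BODIPY PC-A2 in liposomes; potency for inhibition of the enzyme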
[10] = target: Arf-GAP with SH3 domain, ANK repeat and PH domain-containing protein 1 (Homo sapiens, UniProt Q9ULH1); assay type: functional;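 also: biochemical fluorescence polarization dose–response screen measuring inhibition of ASAP1; ASAP1 GAP domain stimulating GTP hydrolysis by truncated human ARF1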
[11] = inhibitors of intracellular T. cruzi replication, confirmation, NIH3T3 host cells, beta-gal luminescence (AID 2044); assay type: functional, cell-based;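 also: intracellular parasites grown in NIH/3T3 mouse fibroblasts as host cells; luminescent beta-galactosidase reporter signal from transgenic T. cruzi replicating inside host cells; inhibitors lower the luminescence signal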
[12] = cytotoxicity toward NIH3T3 fibroblasts, dose response, counter-screen, cell-based, ATP luminescence, mouse fibroblasts (AID 2010); assay type: functional;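 also: cells exposed to compound for about 90 hours before reading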
[13] = ADAM10 protease inhibitors, dose response, selectivity assay for ADAM17 exosite inhibitor project, biochemical, FRET peptide substrate, recombinant human ADAM10 (AID 743259);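 also: ADAM10 enzyme cleaving a FRET peptide substrate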
[14] = target: T2, Disintegrin and metalloproteinase domain-containing protein 17 (Homo sapiens, UniProt P78536); test: exosite inhibitors of ADAM17, dose response, biochemical (AID 743260)
T2 sequence (P78536 whole entry, the tested form may be a part): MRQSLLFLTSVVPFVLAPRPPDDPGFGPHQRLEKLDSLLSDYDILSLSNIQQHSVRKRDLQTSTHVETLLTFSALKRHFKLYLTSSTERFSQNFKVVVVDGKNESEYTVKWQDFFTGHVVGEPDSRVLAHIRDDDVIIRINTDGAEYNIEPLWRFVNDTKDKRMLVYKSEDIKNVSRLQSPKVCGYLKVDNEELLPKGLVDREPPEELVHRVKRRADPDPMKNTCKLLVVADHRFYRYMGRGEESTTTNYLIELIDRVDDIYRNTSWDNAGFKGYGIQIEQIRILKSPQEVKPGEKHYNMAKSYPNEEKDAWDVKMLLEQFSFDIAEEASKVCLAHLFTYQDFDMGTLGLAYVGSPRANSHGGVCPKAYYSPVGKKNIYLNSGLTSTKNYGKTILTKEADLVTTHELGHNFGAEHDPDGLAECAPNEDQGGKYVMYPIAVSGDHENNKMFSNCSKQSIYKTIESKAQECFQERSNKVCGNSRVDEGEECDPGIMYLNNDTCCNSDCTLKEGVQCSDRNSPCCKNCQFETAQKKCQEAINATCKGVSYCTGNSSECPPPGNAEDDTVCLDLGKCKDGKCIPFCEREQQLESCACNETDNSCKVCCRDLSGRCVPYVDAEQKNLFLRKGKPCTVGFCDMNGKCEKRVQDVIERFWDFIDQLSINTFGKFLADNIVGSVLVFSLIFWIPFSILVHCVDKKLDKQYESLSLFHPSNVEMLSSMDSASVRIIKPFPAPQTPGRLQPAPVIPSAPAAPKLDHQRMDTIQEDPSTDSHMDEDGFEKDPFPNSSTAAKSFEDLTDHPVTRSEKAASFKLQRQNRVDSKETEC

[15] = target: Metabotropic glutamate receptor 5 (Rattus norvegicus, UniProt P31424); test: Identification of a glycine sulfonamide based non-MPEP site positive allosteric potentiator (PAM) of mGlu5 (calcium_assay).; assay type: functional
[16] = target: T3, Carboxy-terminal domain RNA polymerase II polypeptide A small phosphatase 1 (Homo sapiens, UniProt Q9GZU7); test: inhibitors of CTDSP1, concentration-response testing, biochemical assay, absorbance-based, actives from ultra-high-throughput screening (AID 540297); assay type: functional
T3 sequence (Q9GZU7 whole entry): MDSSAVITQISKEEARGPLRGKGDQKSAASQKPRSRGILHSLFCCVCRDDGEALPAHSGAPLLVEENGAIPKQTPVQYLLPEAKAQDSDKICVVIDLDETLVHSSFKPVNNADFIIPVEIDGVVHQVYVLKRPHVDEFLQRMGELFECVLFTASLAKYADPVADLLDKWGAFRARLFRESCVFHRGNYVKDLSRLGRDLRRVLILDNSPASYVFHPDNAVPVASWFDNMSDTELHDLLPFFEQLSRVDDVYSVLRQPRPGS

[17] = target: 1-phosphatidylinositol 4,5-bisphosphate phosphodiesterase gamma-1 (Homo sapiens, UniProt P19174); test: Counterscreen for inhibitors of phospholipase C isozymes (PLC-B3): Fluorescence-based biochemical high throughput dose response assay to identify inhibitors of phospholipase C isozymes (PLC-gamma1).
Sequence of 1-phosphatidylinositol 4,5-bisphosphate phosphodiesterase gamma-1 (P19174 whole entry): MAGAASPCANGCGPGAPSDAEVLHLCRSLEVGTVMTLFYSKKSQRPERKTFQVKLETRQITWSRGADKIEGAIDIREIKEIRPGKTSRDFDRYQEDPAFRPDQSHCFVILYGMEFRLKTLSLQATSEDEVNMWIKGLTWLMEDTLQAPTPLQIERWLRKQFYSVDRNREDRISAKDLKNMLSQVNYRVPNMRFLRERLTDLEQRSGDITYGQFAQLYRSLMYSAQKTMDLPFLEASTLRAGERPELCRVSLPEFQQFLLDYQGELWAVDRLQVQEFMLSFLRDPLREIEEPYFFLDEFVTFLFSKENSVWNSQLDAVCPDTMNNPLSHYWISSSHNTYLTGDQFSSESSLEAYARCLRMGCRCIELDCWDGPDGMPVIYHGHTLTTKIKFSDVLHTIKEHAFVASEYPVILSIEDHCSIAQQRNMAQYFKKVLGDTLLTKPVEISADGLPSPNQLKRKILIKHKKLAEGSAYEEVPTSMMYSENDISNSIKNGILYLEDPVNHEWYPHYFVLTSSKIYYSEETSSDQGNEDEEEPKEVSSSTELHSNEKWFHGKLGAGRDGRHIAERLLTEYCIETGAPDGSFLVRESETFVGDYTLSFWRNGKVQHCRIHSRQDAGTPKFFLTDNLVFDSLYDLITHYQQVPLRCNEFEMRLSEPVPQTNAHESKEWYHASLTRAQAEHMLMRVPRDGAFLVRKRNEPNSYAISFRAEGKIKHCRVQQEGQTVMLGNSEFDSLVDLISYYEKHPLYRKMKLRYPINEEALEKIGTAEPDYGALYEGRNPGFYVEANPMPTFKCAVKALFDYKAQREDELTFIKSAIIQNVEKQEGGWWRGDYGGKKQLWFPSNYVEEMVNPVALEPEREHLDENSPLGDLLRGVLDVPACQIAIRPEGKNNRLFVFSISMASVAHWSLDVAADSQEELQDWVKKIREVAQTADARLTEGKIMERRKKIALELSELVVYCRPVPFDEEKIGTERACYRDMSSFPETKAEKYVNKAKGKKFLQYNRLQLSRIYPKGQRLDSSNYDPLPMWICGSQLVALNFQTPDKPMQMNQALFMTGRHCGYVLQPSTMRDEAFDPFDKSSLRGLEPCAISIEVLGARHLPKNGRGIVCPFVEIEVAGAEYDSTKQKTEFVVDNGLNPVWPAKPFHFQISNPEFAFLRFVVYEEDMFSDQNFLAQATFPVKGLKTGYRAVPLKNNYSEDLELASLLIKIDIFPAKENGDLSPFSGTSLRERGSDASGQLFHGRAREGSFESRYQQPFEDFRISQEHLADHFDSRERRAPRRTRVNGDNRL

[18] = target: 1-phosphatidylinositol 4,5-bisphosphate phosphodiesterase beta-3 (Homo sapiens, UniProt Q01970); test: Fluorescence-based biochemical high throughput dose response assay to identify inhibitors of phospholipase C isozymes (PLC-B3).
[19] = HepG2 cell cytotoxicity, dose response, cytotoxicity control for Shn3 inhibitor project, CellTiter-Glo, cherry-picked (AID 624134); assay type: functional, cell-based
[20] = Shn3 3'UTR reporter inhibitors, dose response, cell-based, Clone20 osteoblasts, firefly luciferase, cherry-picked (AID 624132); assay type: functional;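 also: firefly luciferase luminescence from reporter carrying the Shn3 3'UTR in osteoblasts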
[21] = LGR2 antagonists, dose response, cell-based, HEK293, CRE-luciferase reporter, cherry pick, set 2 (AID 743343); assay type: functional;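 also: transfected cells were stimulated with diluted bursicon conditioned medium after compound addition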
[22] = target: Paired box protein Pax-8 (Homo sapiens, UniProt Q06710); test: inhibitors of PAX8-driven TPO luciferase reporter, dose response, RMG-I cells, cherry-pick (AID 687027); assay type: functional, cell-based;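 also: luciferase reporter driven by Pax8 target thyroperoxidase promoter measured by SteadyGlo luminescence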
[23] = reduction of Shn3 3'UTR firefly luciferase signal, dose response, Schnurri-3 inhibitor project, cell-based, Clone20 osteoblasts, cherry-pick, set 2 (AID 720490); assay type: functional;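 also: actives lower the luminescence signal as inhibitors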
[24] = cytotoxicity in HEK-293T cells, dose response, cytotoxicity control for TCR NF-kB inhibitor project, luminescence, T-cell screen hits (AID 489026); assay type: functional, cell-based;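 also: cells exposed to compound about 14 hours before the viability readout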
[25] = HepG2 cell cytotoxicity, dose response, cytotoxicity control, plate reader, cherry-pick, antagonist series (AID 743416); assay type: functional, cell-based
[26] = HEK293 cell cytotoxicity, dose response, cytotoxicity control, plate reader, cherry-picked samples (AID 743446); assay type: functional, cell-based
[27] = MC4R antagonists, dose response, counter-screen for LGR2 antagonist project, cell-based, plate reader, cherry pick (AID 743444); assay type: functional;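 also: transfected HEK 293 cells stimulated with alpha-MSH peptide; potency of inhibitors of the alpha-MSH evoked signal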
[28] = target: T4, Heat shock factor protein 1 (Mus musculus, UniProt P38532); test: inhibition of MG132-induced HSE-luciferase signal, confirmation, cell-based, NIH3T3, luminescence, dose retest (AID 2382); assay type: functional;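 also: NIH3T3 fibroblasts with HSF1-driven luciferase reporter stressed by proteasome inhibitor MG132; luminescence from HSF1-driven luciferase expression after 8 hours of MG132 stress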
T4 sequence (P38532 whole entry): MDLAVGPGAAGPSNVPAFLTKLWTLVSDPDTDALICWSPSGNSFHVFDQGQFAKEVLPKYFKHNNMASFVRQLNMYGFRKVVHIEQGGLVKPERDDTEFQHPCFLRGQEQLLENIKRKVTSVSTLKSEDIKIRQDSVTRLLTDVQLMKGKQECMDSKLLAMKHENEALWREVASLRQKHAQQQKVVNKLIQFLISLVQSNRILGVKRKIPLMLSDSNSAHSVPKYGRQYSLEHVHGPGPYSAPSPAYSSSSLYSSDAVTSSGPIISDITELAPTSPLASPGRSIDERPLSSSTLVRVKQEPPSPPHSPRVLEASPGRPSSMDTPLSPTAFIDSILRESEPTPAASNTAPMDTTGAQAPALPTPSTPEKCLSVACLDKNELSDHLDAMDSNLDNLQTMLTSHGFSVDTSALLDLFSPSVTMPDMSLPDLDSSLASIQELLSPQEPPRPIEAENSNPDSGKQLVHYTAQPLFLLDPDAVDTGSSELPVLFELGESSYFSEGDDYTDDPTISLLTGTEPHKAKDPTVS

[29] = microbe, parasite or virus in culture; assay type: functional; conditions: Mycobacterium tuberculosis
[30] = ADAM10 inhibitors, peptide cleavage, dose response, biochemical, QFRET (AID 743254);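 also: ADAM10 enzyme with the DM2 quenched FRET peptide as substrate; EDANS fluorescence gain as the protease cuts the substrate; inhibitor potency against ADAM10 proteolytic activity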
[31] = target: T2, Disintegrin and metalloproteinase domain-containing protein 17; test: ADAM17 protease inhibitors, dose response, counter-screen for ADAM10 exosite inhibitor project, biochemical, quenched FRET substrate (AID 743253)

Question: For `COc1ccccc1N1CCN(C(=O)c2cc(=O)c3cc(C)ccc3o2)CC1`, which IC50 [1] is on record?
Answer: > 80 µM (inactive)

Question: What does the source list for `CN1C(=O)/C(=C\c2cc(N=Nc3ccccc3)ccc2O)SC1=S`?
Answer: IC50 [2]: 4.51 µM (active); IC50 [3]: 33.7 µM (inactive); IC50 [4]: 24.4 µM (inactive); IC50 [5]: > 80 µM (inactive)

Question: With `CCNC(=O)CCC(=O)Nc1cc(Cl)ccc1C` as the compound, how does the AC50 [6] read?
Answer: 9 µM (active)

Question: For `CCn1c(S)nnc1-c1csc2c1CCCC2`, which IC50 [7] is on record?
Answer: 25.2 µM (not active)

Question: What about the IC50 [8] of the same compound?
Answer: > 39.8 µM (not active)

Question: And the IC50 [9]?
Answer: > 122 µM (inactive)

Question: What does the source list for `CCc1cccc2c(C(=O)CN3C(=O)NC(C)(c4cccc5ccccc45)C3=O)c[nH]c12` (stereo unspecified)?
Answer: IC50 [10]: 165 µM (inactive); EC50 [11]: 1.75 µM (active); EC50 [12]: > 30 µM (not active)

Question: With `Cc1ccccc1NC1=NC(=O)/C(=C/c2cccn2C)S1` as the compound, how does the IC50 [13] read?
Answer: > 69.5 µM (inactive)

Question: What about the IC50 [14] of the same compound?
Answer: > 69.5 µM (inactive)

Question: Which EC50 [15] does the source give for `O=S(=O)(c1ccc(F)cc1)N1CCCC(c2nc(-c3ccc(F)cc3)no2)C1` (stereo unspecified) here?
Answer: 4.53 µM

Question: Which IC50 [16] does the source give for `Cc1cccc(NC(=O)Cn2c(O)c(N=NC(=O)c3ccccc3O)c3ccccc32)c1` here?
Answer: 1.99 µM (active)

Question: And the IC50 [17]?
Answer: > 123 µM (inactive)

Question: What about the IC50 [18] of the same compound?
Answer: > 123 µM (inactive)

Question: For `Cc1nc(SCC(=O)Nc2nc3ccccc3s2)c(C#N)c(C)c1C`, which AC50 [19] is on record?
Answer: > 70 µM (inactive)

Question: And the AC50 [20]?
Answer: < 0.26 µM (active)

Question: What about the AC50 [21] of the same compound?
Answer: 0.0912 µM (active)

Question: And the AC50 [22]?
Answer: < 0.26 µM (active)

Question: And the AC50 [23]?
Answer: < 0.135 µM (active)

Question: What about the IC50 [24] of the same compound?
Answer: > 80 µM (inactive)

Question: And the AC50 [25]?
Answer: > 52 µM (inactive)

Question: And the AC50 [26]?
Answer: > 52 µM (inactive)

Question: What about the AC50 [27] of the same compound?
Answer: < 0.068 µM (active)

Question: And the EC50 [28]?
Answer: < 0.16 µM (active)

Question: Which results are given for `Cc1ccc(C)c(S(=O)(=O)N2CCC(c3nc(O)c4nnn(Cc5ccc6c(c5)OCCO6)c4n3)CC2)c1`?
Answer: CC50 [29]: > 40 µM (active); IC50 [30]: > 69.5 µM (inactive); IC50 [31]: > 69.5 µM (inactive)
